# Where “and” joins values, the source holds several entries; their conditions need not be identical. Equal entries are not always repeated.
# Tests used:
# [1] = Theoretical IDR from the Levich equation with solubility as input; settings: FaSSIF V1
# Description: Dissolution/Transit Balance: Derivation of kdiss based on Intrinsic Dissolution Rate In addition to Equation (S1) (utilizing hdisk and Adisk ra ther than hparticle and Apowder), the Levich equation (Equation (S12)) [11] applies for the dissolution from a rotating disk with a constant surface area under sink conditions and the assumption of convective diffusion without reaction as dissolution mechanism:
# where IDR is the intrinsic dissolution rate, D is the diffusion coefficient, ν is the kinematic viscosit y, ω is the rotational velocity and CS is the thermodynamic solubility. The equation can be rewritten to estimate the IDR using the rotational speed of the compressed disk in revolutions per minut e (Equation (S13Error!
# For this, a unit conversion factor of 30/π must be applied for the conversion of ω in rad∙s–1 to revolutions per minut e (RPM) in min‐1.
# The dissolution rate from the disk surface can be calculated via multiplication of the IDR by the disk surface area Adisk (Equation (S14)):
# Equation (S1) (adjusted to the dissolution from a disk surface) and Equation (S14) (Levich equation) were equated to obtain Equation (S15).
# Rearrangement of Equation (S15) for hdisk results in an equation for the thickness of the aqueous boundary layer (ABL) of the rotating disk (hdisk) under sink conditions (Equation (S16)): […]
# [2] = Disk intrinsic dissolution rate in FaSSIF V1 (µDISS Profiler); assay type: physicochemical; settings: FaSSIF V1, 37 °C, 100 rpm
# Description: The experimental design was adapted from a standard experimental protocol published previously. Disks (n = 3) with a surface area of 0.0707 cm^2 were prepared by compressing the APIs into disk dies. For this, 5 to 10 mg of the API was compressed for 1 min at 50 bar using a Mini-IDR Tablet Compression System (Heath Scientific Co. Ltd., Milton Keynes, UK). Loose powder on the disk surface or die was removed with compressed air. […] With the disk surface facing upwards, the dies were placed into round-shaped magnetic stirrers and transferred into 20 mL assay vials. The vials were placed in a heating block and pre-heated FaSSIF V1 (10 mL) was added to each vial to start the dissolution experiments. The disks were rotated at 100 rpm and concentrations were measured in situ with UV-spectroscopy using fiber optic dip probes. Experiments were performed in triplicate.
# S.2.6. rDCS Customized Investigations: Intrinsic dissolution rate
# The concentration‐time curves for IDR determination were recorded with in situ UV‐spectroscopy using fiber optic dip probes. […] The buffer was stirred at 100 rpm and spectra were recorded approximately 1 minut e after addition of the stock solution. […]
# Second derivatives of the UV spectra were used to establish the calibration curves. Multiple wavelength ranges were evaluated, and calibration curves were accepted for further investigation when linear […]
# [3] = pKa by Fast UV spectrometric titration (SiriusT3); assay type: physicochemical; settings: water/methanol mixtures; Yasuda–Shedlovsky extrapolation from water/methanol titrations, 25 °C; low absorbance, value to be treated with caution
# Text: A high-throughput spectrometric screening assay (Fast UV method) using the SiriusT3 (Pion Inc., Billerica, MA, USA) was applied. Samples were titrated under varying water/methanol ratios and apparent pKa values were extrapolated using the Yasuda–Shedlovsky extrapolation. The experimental details are provided in Supplementary Materials. Measured pKa values are presented as means (±SD) and were compared to literature values as well as in silico predictions using the software ADMET Predictor version 9 (Simulations Plus Inc., Lancaster, CA, USA) and ACD/Labs Release 2021.1.2 (Advanced Chemistry Development Inc., Toronto, ON, Canada). […]
# r0 2 ∙ ρ ∙IDR∙Dose ൌ DF ∙ PefRsi ∙mdissolved (r0 < 30 μm, hparticle = r0) (S39) […]
# spectrometric screening assay (Fast UV method) using an automated titrator system with an incorporated UV‐Vis spectrometer (SiriusT3, Pion Inc., Billerica, MA, USA). […] The pKa values were determined from three titrations with different water/methanol ratios and extrapolation of apparent pKa values in the presence of co‐solvents using the Yasuda‐Shedlovsky extrapolation. Measured pKa values are presented as means with standard deviation and were compared to literature va lues and predictions using the software ADMET Predictor
# [4] = Conversion of Caco-2 Papp(A⟹B) to effective human permeability (Simcyp Papp–Peff correlation); settings: for estimated/predicted human Peff: estimated from Caco-2 permeability data; for Estimated human Peff: from Papp(A⟹B) without inhibitor, atenolol and propranolol as calibrators
# Description: The Caco-2 Papp values were averaged. […] Estimated Peff values were used as input for the rDCS and rtarget calculations. […]
# μM) to study transporter‐mediated efflux effects. In those experiments, elacridar was included in both compartments during the equilibration time and assay. The starting concentration (C0) was confirmed by […]
# Details of the analytical standard method are presented in Ta ble S8. Measurements were performed in duplicate and reference […]
# Papp values were averaged. To […]
# permeability was monitored during the experiment using fluorimetric analysis. The pre‐defined lucifer […]
# The built‐in literature Papp‐Peff […]
# propranolol as calibrator substances was used. Estimated Peff values were used as input for the rDCS and rtarget calculations.
# Table S8. Details of the LC‐MS/MS method for quantification of API concentrations in Caco‐2 permeability study […]
# Acquity™ HSS T3 (1.8 μm) 2.1 x 30 mm (Waters Ltd, Herts, UK) fitted with Column SecurityGuard™ ULTRA Fully Porous Polar C18 cartridge (Phenomenex, […]
# Mobile phase A 10 mM ammonium formate + 0.1 % v/v formic acid in water
# Mobile phase B 100% Methanol
# Gradient time profile 0.60 5 95
Compound,theoretical IDR (Levich equation with CS as input) [1] [µg/min/cm^2],IDR FaSSIF V1 (disk dissolution method) [2],pKa [3],estimated/predicted human Peff [4] [×10⁻⁶ cm/s],Estimated human Peff [4] [×10⁻⁶ cm/s]
"Cc1ncc(OC[C@@]2(c3cccc(F)c3)C[C@H]2C(=O)Nc2ccc(F)cn2)c(C)n1 [Lemborexant, lemborexant]",2.24 ± 0.01,1.99 ± 0.09 µg/min/cm^2 and 1.99 ± 0.09 ^2 µg/min/cm^2,2.18 ± 0.05,4.2,420
"CCn1c(=O)c2c(nc(/C=C/c3ccc(OC)c(OC)c3)n2C)n(CC)c1=O [Istradefylline, istradefylline]",0.346 ± 0.005,,,4.66,466
"C[C@@H](c1ncncc1F)[C@](O)(Cn1cncn1)c1ccc(F)cc1F [Voriconazole, voriconazole]",,84.8 ± 1.4 µg/min/cm^2 and 84.8 ± 1.4 ^2 µg/min/cm^2,,,
